Measured values as given in patent US11780839B2, “Compounds for treating Huntington's disease” (PTC THERAPEUTICS, INC., priority 2018, dated 2023).

Test system: Endogenous Huntingtin Protein
Test: Endogenous Huntingtin Protein Assay (ELISA-based Meso Scale Discovery electrochemiluminescence)
Type: cell-based
Details: MSD electrochemiluminescence, Table 1
Summary of the method: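 Sandwich MSD electrochemiluminescence immunoassay. Capture used MW1 (expanded polyglutamine) or MAB2166 antibody coated at 1 μg/mL overnight at 4 °C. Samples were bound overnight at 4 °C, then a rabbit monoclonal detection antibody and SULFO-TAG anti-rabbit, each at 0.25 μg/mL, were applied for 1 h at room temperature.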

Structure (SMILES) | IC50
NC1C2CN(c3ncc(-c4ccc(-c5cn[nH]c5)cc4O)nn3)CC12 (stereo not drawn) [Cpd 100, 2-[3-(6-amino-3-azabicyclo[3.1.0]hexan-3-yl)-1,2,4-triazin-6-yl]-5-(1H-pyrazol-4-yl)phenol] | ≤ 100 nM
CN(c1ncc(-c2ccc(-c3cnn(C4CC4)c3)cc2O)nn1)C1CC(C)(C)NC(C)(C)C1 [Cpd 101, 5-(1-cyclopropyl-1H-pyrazol-4-yl)-2-{3-[methyl(2,2,6,6-tetramethylpiperidin-4-yl)amino]-1,2,4-triazin-6-yl}phenol] | 100 to 500 nM
CN(c1ncc(-c2ccc(-c3ccncn3)cc2O)nn1)C1CC(C)(C)NC(C)(C)C1 [Cpd 102, 2-{3-[methyl(2,2,6,6-tetramethylpiperidin-4-yl)amino]-1,2,4-triazin-6-yl}-5-(pyrimidin-4-yl)phenol] | ≤ 100 nM
CN(c1ncc(-c2ccc(-c3ccc(O)cc3)cc2O)nn1)C1CC(C)(C)NC(C)(C)C1 [Cpd 103, 4-{3-[methyl(2,2,6,6-tetramethylpiperidin-4-yl)amino]-1,2,4-triazin-6-yl}[1,1'-biphenyl]-3,4’-diol] | ≤ 100 nM
CN(c1ncc(-c2ccc(-c3ccc(=O)[nH]c3)cc2O)nn1)C1CC(C)(C)NC(C)(C)C1 [Cpd 104, 5-(3-hydroxy-4-{3-[methyl(2,2,6,6-tetramethylpiperidin-4-yl)amino]-1,2,4-triazin-6-yl}phenyl)pyridin-2(1H)-one] | ≤ 100 nM
CN(c1ncc(-c2cc3cccnc3cc2O)nn1)C1CC(C)(C)NC(C)(C)C1 [Cpd 105, 6-{3-[methyl(2,2,6,6-tetramethylpiperidin-4-yl)amino]-1,2,4-triazin-6-yl}quinolin-7-ol] | 100 to 500 nM
CN(c1ncc(-c2ccc(-c3nnco3)cc2O)nn1)C1CC(C)(C)NC(C)(C)C1 [Cpd 106, 2-{3-[methyl(2,2,6,6-tetramethylpiperidin-4-yl)amino]-1,2,4-triazin-6-yl}-5-(1,3,4-oxadiazol-2-yl)phenol] | ≤ 100 nM
CC1(C)CC(Oc2ncc(-c3ccc(-c4cc[nH]n4)cc3O)nn2)CC(C)(C)N1 [Cpd 107, 5-(1H-pyrazol-3-yl)-2-{3-[(2,2,6,6-tetramethylpiperidin-4-yl)oxy]-1,2,4-triazin-6-yl}phenol] | 1000 to 3000 nM
Cn1ccc(-c2ccc(-c3cnc(OC4CC(C)(C)NC(C)(C)C4)nn3)c(O)c2)n1 [Cpd 108, 5-(1-methyl-1H-pyrazol-3-yl)-2-{3-[(2,2,6,6-tetramethylpiperidin-4-yl)oxy]-1,2,4-triazin-6-yl}phenol] | > 500 nM
Oc1cc(-c2cn[nH]c2)ccc1-c1cnc(N2CC3(CCCNC3)C2)nn1 [Cpd 109, 2-[3-(2,6-diazaspiro[3.5]nonan-2-yl)-1,2,4-triazin-6-yl]-5-(1H-pyrazol-4-yl)phenol] | 100 to 500 nM
Oc1cc(-c2cn[nH]c2)ccc1-c1cnc(N2CCC3(CNC3)C2)nn1 [Cpd 110, 2-[3-(2,6-diazaspiro[3.4]octan-6-yl)-1,2,4-triazin-6-yl]-5-(1H-pyrazol-4-yl)phenol] | 100 to 500 nM
CN(c1ncc(-c2ccc(-c3cc[nH]n3)cc2O)nn1)C1CC(C)(C)NC(C)(C)C1 [Cpd 111, 2-{3-[methyl(2,2,6,6-tetramethylpiperidin-4-yl)amino]-1,2,4-triazin-6-yl}-5-(1H-pyrazol-3-yl)phenol] | ≤ 100 nM
CN(c1ncc(-c2ccc(-c3ncc(F)cn3)cc2O)nn1)C1CC(C)(C)NC(C)(C)C1 [Cpd 112, 5-(5-fluoropyrimidin-2-yl)-2-{3-[methyl(2,2,6,6-tetramethylpiperidin-4-yl)amino]-1,2,4-triazin-6-yl}phenol] | 100 to 500 nM
CN1CCC12CCN(c1ncc(-c3ccc(-c4cn[nH]c4)cc3O)nn1)CC2 [Cpd 113, 2-[3-(1-methyl-1,7-diazaspiro[3.5]nonan-7-yl)-1,2,4-triazin-6-yl]-5-(1H-pyrazol-4-yl)phenol] | 100 to 500 nM
CN[C@H]1CCN(c2ncc(-c3ccc(-c4cn[nH]c4)cc3O)nn2)C1 [Cpd 114, 2-{3-[(3S)-3-(methylamino)pyrrolidin-l-yl]-1,2,4-triazin-6-yl}-5-(1H-pyrazol-4-yl)phenol] | ≤ 100 nM
N[C@@H]1CN(c2ncc(-c3ccc(-c4cn[nH]c4)cc3O)nn2)CC12CC2 [Cpd 115, 2-{3-[(7S)-7-amino-5-azaspiro[2.4]heptan-5-yl]-1,2,4-triazin-6-yl}-5-(1H-pyrazol-4-yl)phenol] | 100 to 500 nM
Oc1cc(-c2cn[nH]c2)ccc1-c1cnc(N2CCN3CCC[C@H]3C2)nn1 [Cpd 116, 2-{3-[(8aS)-hexahydropyrrolo[1,2-a]pyrazin-2(1H)-yl]-1,2,4-triazin-6-yl}-5-(1H-pyrazol-4-yl)phenol] | 100 to 500 nM
CN1CC[C@@H]2CN(c3ncc(-c4ccc(-c5cn[nH]c5)cc4O)nn3)C[C@@H]21 [Cpd 117, 2-{3-[(3aR,6aR)-1-methylhexahydropyrrolo[3,4-b]pyrrol-5(1H)-yl]-1,2,4-triazin-6-yl}-5-(1H-pyrazol-4-yl)phenol] | 100 to 500 nM

Structure (SMILES) | IC50
Oc1cc(-c2cn[nH]c2)ccc1-c1cnc(N2CC3(CNC3)C2)nn1 [Cpd 118, 2-[3-(2,6-diazaspiro[3.3]heptan-2-yl)-1,2,4-triazin-6-yl]-5-(1H-pyrazol-4-yl)phenol] | 100 to 500 nM
Cc1nnn(-c2ccc(-c3cnc(N(C)C4CC(C)(C)NC(C)(C)C4)nn3)c(O)c2)n1 [Cpd 119, 2-{3-[methyl(2,2,6,6-tetramethylpiperidin-4-yl)amino]-1,2,4-triazin-6-yl}-5-(5-methyl-2H-tetrazol-2-yl)phenol] | ≤ 100 nM
CCC1CC(Oc2ncc(-c3ccc(-c4cn[nH]c4)cc3O)nn2)CC(CC)N1 [Cpd 120, 2-{3-[(2R,4s,6S)-2,6-diethylpiperidin-4-yl]oxy}-1,2,4-triazin-6-yl)-5-(1H-pyrazol-4-yl)phenol] | 100 to 500 nM
CC1(C)CC(Nc2ncc(-c3ccc(-n4nccn4)cc3O)nn2)CC(C)(C)N1 [Cpd 121, 2-{3-[(2,2,6,6-tetramethylpiperidin-4-yl)amino]-1,2,4-triazin-6-yl}-5-(2H-1,2,3-triazol-2-yl)phenol] | ≤ 100 nM
CC1(C)CC(Oc2ncc(-c3ccc(-n4nccn4)cc3O)nn2)CC(C)(C)N1 [Cpd 122, 2-{3-[(2,2,6,6-tetramethylpiperidin-4-yl)oxy]-1,2,4-triazin-6-yl}-5-(2H-1,2,3-triazol-2-yl)phenol] | 100 to 500 nM
CN(c1ncc(-c2ccc(-c3ccc(Cl)nn3)cc2O)nn1)C1CC(C)(C)NC(C)(C)C1 [Cpd 123, 5-(6-chloropyridazin-3-yl)-2-{3-[methyl(2,2,6,6-tetramethylpiperidin-4-yl)amino]-1,2,4-triazin-6-yl}phenol] | ≤ 100 nM
CN(c1ncc(-c2ccc(-c3ccnn3C)cc2O)nn1)C1CC(C)(C)NC(C)(C)C1 [Cpd 124, 5-(1-methyl-1H-pyrazol-5-yl)-2-{3-[methyl(2,2,6,6-tetramethylpiperidin-4-yl)amino]-1,2,4-triazin-6-yl}phenol] | 100 to 500 nM
CN(c1ncc(-c2cc(F)c(-c3ccn[nH]3)cc2O)nn1)C1CC(C)(C)NC(C)(C)C1 [Cpd 125, 4-fluoro-2-{3-[methyl(2,2,6,6-tetramethylpiperidin-4-yl)amino]-1,2,4-triazin-6-yl}-5-(1H-pyrazol-5-yl)phenol] | ≤ 100 nM
CC1(C)CC(Nc2ncc(-c3ccc(-c4cn[nH]c4)cc3O)nn2)C(F)C(C)(C)N1 (stereo not drawn) [Cpd 126, 2-{3-[(3-fluoro-2,2,6,6-tetramethylpiperidin-4-yl)amino]-1,2,4-triazin-6-yl}-5-(1H-pyrazol-4-yl)phenol] | ≤ 100 nM
CCN(CC)C1C2CN(c3ncc(-c4ccc(-c5cn[nH]c5)cc4O)nn3)CC21 (stereo not drawn) [Cpd 127, 2-{3-[6-(diethylamino)-3-azabicyclo[3.1.0]hexan-3-yl]-1,2,4-triazin-6-yl}-5-(1H-pyrazol-4-yl)phenol] | 100 to 500 nM
Cc1cnc(-c2ccc(-c3cnc(N(C)C4CC(C)(C)NC(C)(C)C4)nn3)c(O)c2)nc1 [Cpd 128, 5-(5-methylpyrimidin-2-yl)-2-{3-[methyl(2,2,6,6-tetramethylpiperidin-4-yl)amino]-1,2,4-triazin-6-yl}phenol] | 100 to 500 nM
Cc1ccnc(-c2ccc(-c3cnc(N(C)C4CC(C)(C)NC(C)(C)C4)nn3)c(O)c2)n1 [Cpd 129, 5-(4-methylpyrimidin-2-yl)-2-{3-[methyl(2,2,6,6-tetramethylpiperidin-4-yl)amino]-1,2,4-triazin-6-yl}phenol] | 100 to 500 nM
CN(c1ncc(-c2ccc(-c3ccnc(Cl)n3)cc2O)nn1)C1CC(C)(C)NC(C)(C)C1 [Cpd 130, 5-(2-chloropyrimidin-4-yl)-2-{3-[methyl(2,2,6,6-tetramethylpiperidin-4-yl)amino]-1,2,4-triazin-6-yl}phenol] | 100 to 500 nM
CN(c1ncc(-c2ccc(-c3ccc4[nH]cnc4c3)cc2O)nn1)C1CC(C)(C)NC(C)(C)C1 [Cpd 131, 5-(1H-benzimidazol-5-yl)-2-{3-[methyl(2,2,6,6-tetramethylpiperidin-4-yl)amino]-1,2,4-triazin-6-yl}phenol] | ≤ 100 nM
CN(c1ncc(-c2ccc(-c3cnc4[nH]ncc4c3)cc2O)nn1)C1CC(C)(C)NC(C)(C)C1 [Cpd 132, 2-{3-[methyl(2,2,6,6-tetramethylpiperidin-4-yl)amino]-1,2,4-triazin-6-yl}-5-(1H-pyrazolo[3,4-b]pyridin-5-yl)phenol] | 100 to 500 nM
CN(c1ncc(-c2ccc(-n3cnc(Cl)n3)cc2O)nn1)C1CC(C)(C)NC(C)(C)C1 [Cpd 133, 5-(3-chloro-1H-1,2,4-triazol-1-yl)-2-{3-[methyl(2,2,6,6-tetramethylpiperidin-4-yl)amino]-1,2,4-triazin-6-yl}phenol] | ≤ 100 nM
CN(c1ncc(-c2ccc(-c3ccc(O)nn3)cc2O)nn1)C1CC(C)(C)NC(C)(C)C1 [Cpd 134, 6-(3-hydroxy-4-{3-[methyl(2,2,6,6-tetramethylpiperidin-4-yl)amino]-1,2,4-triazin-6-yl}phenyl)pyridazin-3-ol] | ≤ 100 nM
CN(c1ncc(-c2ccc(-n3cc(C#N)cn3)cc2O)nn1)C1CC(C)(C)NC(C)(C)C1 [Cpd 135, 1-(3-hydroxy-4-{3-[methyl(2,2,6,6-tetramethylpiperidin-4-yl)amino]-1,2,4-triazin-6-yl}phenyl)-1H-pyrazole-4-carbonitrile] | 100 to 500 nM
